# Assay results published in ChEMBL document CHEMBL1121794, “Octanol-physiological buffer distribution coefficients of lipophilic amines by reversed-phase high-performance liquid chromatography and their correlation with biological activity” (J Med Chem, 1981).
# Experiments:
# [1] = (§1) Partition coefficient (logD7.4); conditions: octanol/water, pH 7.4
# Rattus norvegicus [2] = organism: Rattus norvegicus
# physchem [3] = conditions: octanol/water
# physchem [4] = conditions: octanol/water; remark: listed apart in the source
# [5] = not given; remark: listed apart in the source
# [6] = octanol/water
# Description: Partition coefficient (logD, measured by HPLC, log k')
# [7] = not given; remark: listed apart in the source
# [8] = not given; remark: listed apart in the source
# [9] = not given; remark: listed apart in the source
# [10] = not given; remark: listed apart in the source
# [11] = not given; remark: listed apart in the source
# [12] = (§2) Partition coefficient (logD) (HPLC); format: physicochemical; conditions: octanol/water
# [13] = as §2; format: physicochemical; conditions: octanol/water; remark: listed apart in the source
# physchem [14] = conditions: octanol/water; remark: listed apart in the source
# physchem [15] = conditions: octanol/water; remark: listed apart in the source
# [16] = not given; remark: listed apart in the source
# [17] = not given; remark: listed apart in the source
# [18] = as §1; conditions: octanol/water, pH 7.4; remark: listed apart in the source
# [19] = not given; remark: listed apart in the source
# Rattus norvegicus [20] = organism: Rattus norvegicus; remark: listed apart in the source
# Rattus norvegicus [21] = organism: Rattus norvegicus; remark: listed apart in the source
# [22] = not given; remark: listed apart in the source
# [23] = not given; remark: listed apart in the source
# [24] = (§3) logD (measured by HPLC) (as log k'); format: ADME
# [25] = not given; remark: listed apart in the source
# physchem [26] = conditions: octanol/water, pH 7.4
# [27] = as §3; format: ADME; remark: listed apart in the source
# [28] = as §3; format: ADME; remark: listed apart in the source
# [29] = not given; remark: listed apart in the source
# [30] = as §3; format: ADME; remark: listed apart in the source
# Rattus norvegicus [31] = organism: Rattus norvegicus; test: pKa value was measured by water/octanol using shake-flask method.
# [32] = not given; remark: listed apart in the source
# [33] = The compound was tested for its ability to inhibit Na+/K+ ATPase in rat brain.; format: tissue-based
# Rattus norvegicus [34] = organism: Rattus norvegicus; test: Log (1/ED50) was measured as histamine releasing activity in rat mast cells; log(1/ED50*10e-3).; format: functional
# [35] = octanol/water; remark: listed apart in the source
# Rattus norvegicus [36] = organism: Rattus norvegicus; test: Apparent partition coefficient was measured as histamine releasing activity in rat mast cells.
# [37] = octanol/water; remark: listed apart in the source
# [38] = biological target: Serum albumin (Bos taurus) (UniProt P02769); test: BSA binding (log K)
# [39] = not given; remark: listed apart in the source
# [40] = not given; remark: listed apart in the source
Structure (SMILES),logD [1],Log k',Log k' [5],Log k' [6],Log k' [7],Log k' [8],Log k' [9],Log k' [10],also measured
CC(=O)c1ccc2c(c1)N(CCCN1CCN(CCO)CC1)c1ccccc1S2 [ACETOPHENAZINE],2.62,1.301,0.808,,,,,,Log 1/ED50 (Rattus norvegicus [2]): 2.12; logD (physchem [3]): 0.366; logD (physchem [4]): 0.728
CCCCOc1cc(C(=O)NCCN(CC)CC)c2ccccc2n1 [DIBUCAINE],2.91,1.642,1.11,1.588,0.501,0.915,1.064,1.651,Log k' [11]: 1.215
CN(C)CCC(c1ccc(Cl)cc1)c1ccccn1 (stereo not drawn) [CHLORPHENIRAMINE],1.38,0.262,0.074,,-0.329,0.334,0.007,0.273,logD [12]: 0.466; logD [13]: 0.466; logD (physchem [14]): 1.53; logD (physchem [15]): 1.51
COc1ccccc1 [ANISOLE],2.09,,0.885,,0.381,0.264,0.332,0.928,logD [12]: 0.872; logD [13]: 0.353; logD [16]: 2.086
CCC(=O)O[C@](Cc1ccccc1)(c1ccccc1)[C@H](C)CN(C)C [PROPOXYPHENE],2.36,1.259,0.769,1.124,0.483,0.673,,1.263,Log k' [17]: 0.656; Log k' [11]: 0.795
CNCCC=C1c2ccccc2CCc2ccccc21 [NORTRIPTYLINE],1.98,,,1.162,,,,,pKa [18]: 9.73; Log k' [19]: 0.349; Papp (Rattus norvegicus [20]): 1.8; Log 1/ED50 (Rattus norvegicus [21]): 1.76; logD (physchem [14]): 2.04; Log k' [22]: 0.899; logD (physchem [15]): 2.01
COc1ccccc1N1CCN(CCCC(=O)c2ccc(F)cc2)CC1 [FLUANISONE],2.93,1.64,1.64,1.448,1.063,0.805,0.996,1.669,Log k' [11]: 1.175
CN(C)CCC=C1c2ccccc2CCc2ccccc21 [AMITRIPTYLINE],2.83,1.641,,,1.264,,,,pKa [18]: 9.4; Log k' [23]: 1.279; Log k' [24]: 1.214; Log k' [25]: 1.419; logD [13]: 2.83; logD (physchem [26]): 2.5; Papp (Rattus norvegicus [20]): 2.3; Log 1/ED50 (Rattus norvegicus [21]): 1.85; Log k' [27]: 0.753
c1ccccc1 [BENZENE],,,,0.874,,,,,
CC(CN1c2ccccc2Sc2ccccc21)N(C)C (stereo not drawn) [PROMETHAZINE],2.849,,,1.595,,,1.172,1.67,Log k' [28]: 0.757; Log k' [29]: 1.176; Log k' [23]: 1.271; Log 1/ED50 (Rattus norvegicus [2]): 1.82; Log k' [24]: 1.512; Log k' [30]: 1.252; pKa (Rattus norvegicus [31]): 9.4; Log k' [17]: 1.512; logD (physchem [26]): 2.79; Log k' [32]: 1.669; Activity [33]: -0.37
Clc1ccccc1 [CHLOROBENZENE],2.87,1.61,1.61,,1.022,0.773,1.027,1.631,logD [12]: 1.56; logD [13]: 1.05
CN(C)CC/C=C1/c2ccccc2Sc2ccc(Cl)cc21 [CHLORPROTHIXENE],,,,,,,,,Histamine release (Rattus norvegicus [34]): 2.57; Log k' [24]: 2.142; Papp (Rattus norvegicus [20]): 2.67
OCCN1CCN(CCCN2c3ccccc3Sc3ccc(Cl)cc32)CC1 [PERPHENAZINE],,2.287,1.749,,,,,,pKa [18]: 7.8; Log 1/ED50 (Rattus norvegicus [2]): 2.63; logD [35]: 1.473; Papp (Rattus norvegicus [36]): 2.95; logD [37]: 1.1; Activity [33]: 0.09; Log K [38]: 3.57
CN1CCC(=C2c3ccccc3C=Cc3ccccc32)CC1 [CYPROHEPTADINE],3.11,,,1.853,,,1.516,1.999,Log k' [23]: 1.527; Log k' [19]: 1.037; Log k' [25]: 1.715; Log k' [39]: 1.529; Log k' [17]: 1.715; logD (physchem [26]): 3.14; Log k' [22]: 1.43; Log k' [40]: 1.984
